Data as given in US10322110B2, “Imidazole-based antimicrobial agents” (priority 2014, dated 2019).
In brackets after ≈: the same amount, converted by molar mass. Where two headings read alike, the source gives them in different places.

What was measured:
[1] = test system: Staphylococcus epidermidis (PCI 1200, ATCC12228); assay: broth microdilution MIC assay, Staphylococcus epidermidis; assay type: cell-based; settings: ATCC12228, read-out: Antibacterial activity SE (Staphylococcus epidermidis)
[2] = test system: penicillin-, erythromycin- and tetracycline-resistant Streptococcus pneumoniae (ATCC 700677), ARSP; assay: microbe, parasite or virus in culture; assay type: cell-based
[3] = test system: Staphylococcus aureus MRSA (COL); assay: broth microdilution MIC assay, Staphylococcus aureus MRSA (COL); assay type: cell-based; settings: for MIC: Staphylococcus aureus, MRSA; for Antibacterial activity Staphylococcus aureus (MRSA): MIC100 class score, broth microdilution
[4] = test system: Human hepatocytes (HepaRG cells); assay: human cytotoxicity assay in vitro (CellTiter-Glo), hepatocytes; assay type: cell-based; settings: cytotoxicity class
[5] = test system: Streptococcus pneumoniae (Chester, ATCC49619); assay: broth microdilution MIC assay, Streptococcus pneumoniae; assay type: cell-based; settings: MIC100 class score, 24 h
[6] = test system: Staphylococcus aureus MSSA (Newman); assay: broth microdilution MIC assay, Staphylococcus aureus MSSA (Newman); assay type: cell-based; settings: for Antibacterial activity Staphylococcus aureus (MSSA): MIC100 class score, broth microdilution; for MIC: Staphylococcus aureus
[7] = test system: Bacillus subtilis (Marburg strain, ATCC6051); assay: microbe, parasite or virus in culture; assay type: cell-based; settings: ATCC6051, read-out: Antibacterial activity BS (Bacillus substilis)
[8] = test system: Mycobacterium smegmatis (mc(2)155, ATCC700084); assay: broth microdilution MIC assay, Mycobacterium smegmatis; settings: MIC activity class
[9] = ATCC700677, MIC activity class, read-out: Antibacterial activity ARSP (multi-drug resistant-SP)
[10] = read-out: Antibacterial activity MRSA (Staphylococcus aureus MRSA)
[11] = read-out: Antibacterial activity MSSA (Staphylococcus aureus MSSA)
[12] = 24 h, read-out: Antibacterial activity Staphylococcus aureus (MRSA)
[13] = 24 h, read-out: Antibacterial activity Staphylococcus aureus (MSSA)

Structure (SMILES) | MIC [1] | MIC [2, 9] | MIC [3, 10] | cytotoxicity cell line H (hepatocytes) [4] | Antibacterial activity Streptococcus pneumoniae [5] | Antibacterial activity Staphylococcus aureus (MSSA) ([6]; 24 h) | MIC [6, 11] | MIC [7] | MIC [3, 12] | MIC [6, 13] | Antibacterial activity MS (Mycobacterium smegmatis) [8] | MIC ([2]; ATCC700677, read-out: Antibacterial activity ARSP (multi-drug resistant-SP)) | Antibacterial activity Staphylococcus aureus (MRSA) ([3]; 24 h)
FC(F)(F)Oc1ccccc1-c1ccc(-c2nc(-c3ccc(Cl)cc3Cl)c[nH]2)o1 [Compound 68] | 3 to 10 µg/mL (≈ 6.83 to 22.8 µM) | 2 to 5 µg/mL (≈ 4.55 to 11.4 µM) | 11 to 201 µg/mL (≈ 25 to 458 µM) | 2 | 2 (MIC100 of 6-10 μg/ml) | 2 (MIC100 of 11-201 μg/ml) | 11 to 201 µg/mL (≈ 25 to 458 µM) | 3 to 10 µg/mL (≈ 6.83 to 22.8 µM) |  |  |  |  | 
Cc1nc(-c2ccc(-c3ccc(Cl)c(OC(F)(F)F)c3)o2)[nH]c1-c1ccccc1 [Compound 41] | 11 to 201 µg/mL (≈ 26.3 to 480 µM) | < 1 µg/mL | 3 to 10 µg/mL (≈ 7.16 to 23.9 µM) | 2 |  |  | 3 to 10 µg/mL (≈ 7.16 to 23.9 µM) | 3 to 10 µg/mL (≈ 7.16 to 23.9 µM) | 3 to 10 µg/mL (≈ 7.16 to 23.9 µM) | 3 to 10 µg/mL (≈ 7.16 to 23.9 µM) |  |  | 
Cc1[nH]c(-c2ccc(-c3cccc(F)c3C)o2)nc1-c1ccccc1 [Compound 60] | 20 to 50 µg/mL (≈ 60.2 to 150 µM) | 2 to 5 µg/mL (≈ 6.02 to 15 µM) | 20 to 50 µg/mL (≈ 60.2 to 150 µM) | 3 |  |  | 3 to 10 µg/mL (≈ 9.03 to 30.1 µM) | 3 to 10 µg/mL (≈ 9.03 to 30.1 µM) | 20 to 50 µg/mL (≈ 60.2 to 150 µM) | 3 to 10 µg/mL (≈ 9.03 to 30.1 µM) | 2 (MIC100 of 11-201 μg/ml) |  | 
Cc1[nH]c(-c2ccc(-c3ccccc3OC(F)(F)F)o2)nc1Cc1ccc(Br)cc1 [Compound 30, 4-(4-Bromo-benzyl)-5-methyl-2-[5-(2-trifluoromethoxy-phenyl)-furan-2-yl]-1H-imidazole] | 11 to 201 µg/mL (≈ 23 to 421 µM) | < 1 µg/mL | 3 to 10 µg/mL (≈ 6.29 to 21 µM) | 3 |  | 3 (MIC100 of 3-10 μg/ml) | 3 to 10 µg/mL (≈ 6.29 to 21 µM) | 3 to 10 µg/mL (≈ 6.29 to 21 µM) |  |  |  |  | 
Cc1[nH]c(-c2ccc(-c3ccccc3OC(F)(F)F)o2)nc1-c1ccc(Cl)cc1 [Compound 24] | 20 to 50 µg/mL (≈ 47.8 to 119 µM) | < 1 µg/mL | 3 to 10 µg/mL (≈ 7.16 to 23.9 µM) | 2 |  | 3 (MIC100 of 3-10 μg/ml) | 3 to 10 µg/mL (≈ 7.16 to 23.9 µM) | 3 to 10 µg/mL (≈ 7.16 to 23.9 µM) |  |  |  |  | 
Cc1nc(-c2ccc(-c3ccccc3OC(F)(F)F)o2)[nH]c1-c1ccccc1Cl [Compound 19] |  |  | 20 to 50 µg/mL (≈ 47.8 to 119 µM) | 3 |  |  | 20 to 50 µg/mL (≈ 47.8 to 119 µM) |  |  |  | 2 (MIC100 of 11-201 μg/ml) | 2 to 5 µg/mL (≈ 4.78 to 11.9 µM) | 
FC(F)(F)Oc1ccccc1-c1ccc(-c2nc(Cl)c(-c3ccccc3)[nH]2)o1 [Compound 64] | 20 to 50 µg/mL (≈ 49.4 to 124 µM) | 2 to 5 µg/mL (≈ 4.94 to 12.4 µM) | 20 to 50 µg/mL (≈ 49.4 to 124 µM) | 3 |  | 2 (MIC100 of 11-201 μg/ml) | 3 to 10 µg/mL (≈ 7.41 to 24.7 µM) | 20 to 50 µg/mL (≈ 49.4 to 124 µM) |  |  |  |  | 
Cc1ccccc1-c1c[nH]c(-c2ccc(-c3ccccc3OC(F)(F)F)o2)n1 [Compound 66] | 20 to 50 µg/mL (≈ 52 to 130 µM) | 2 to 5 µg/mL (≈ 5.2 to 13 µM) | 11 to 201 µg/mL (≈ 28.6 to 523 µM) | 3 |  | 3 (MIC100 of 3-10 μg/ml) | 3 to 10 µg/mL (≈ 7.81 to 26 µM) | 3 to 10 µg/mL (≈ 7.81 to 26 µM) |  |  | 2 (MIC100 of 11-201 μg/ml) |  | 2 (MIC100 of 11-201 μg/ml)
Cc1[nH]c(-c2ccc(-c3ccc(OC(F)(F)F)cc3)o2)nc1-c1ccc(Cl)cc1 [Compound 48] | 11 to 201 µg/mL (≈ 26.3 to 480 µM) | < 1 µg/mL | 3 to 10 µg/mL (≈ 7.16 to 23.9 µM) | 2 |  | 3 (MIC100 of 3-10 μg/ml) | 3 to 10 µg/mL (≈ 7.16 to 23.9 µM) | 3 to 10 µg/mL (≈ 7.16 to 23.9 µM) |  |  |  |  | 
Cc1nc(-c2ccc(-c3ccc(Cl)c(OC(F)(F)F)c3)o2)[nH]c1-c1ccc(F)cc1 [Compound 43] | 20 to 50 µg/mL (≈ 45.8 to 114 µM) | < 1 µg/mL | 11 to 201 µg/mL (≈ 25.2 to 460 µM) | 3 |  | 3 (MIC100 of 3-10 μg/ml) | 3 to 10 µg/mL (≈ 6.87 to 22.9 µM) | 3 to 10 µg/mL (≈ 6.87 to 22.9 µM) |  |  |  |  | 2 (MIC100 of 11-201 μg/ml)
